Assay results taken from the NIST ThermoML archive (doi:10.1021/je700260f).
± gives the expanded uncertainty stated by the source.

Conditions: 323.14 K, Liquid, Vibrating tube method

FC(C(F)(F)F)C(F)(F)F [1,1,1,2,3,3,3-heptafluoropropane]
Conditions | mass density [kg/m3]
10190 kPa | 1363.3 ± 1.5
10206 kPa | 1363.7 ± 1.5
10232 kPa | 1363.8 ± 1.5
10249 kPa | 1363.9 ± 1.5
10273 kPa | 1364 ± 1.5
10288 kPa | 1364 ± 1.5
10306 kPa | 1364.3 ± 1.5
10331 kPa | 1364.4 ± 1.5
10619 kPa | 1366.6 ± 1.5
10640 kPa | 1366.6 ± 1.5
10664 kPa | 1366.8 ± 1.5
10682 kPa | 1367 ± 1.5
10704 kPa | 1367.2 ± 1.5
10722 kPa | 1367.2 ± 1.5
10915 kPa | 1368.6 ± 1.5
10935 kPa | 1368.7 ± 1.5
10959 kPa | 1368.8 ± 1.5
10980 kPa | 1369 ± 1.5
10998 kPa | 1369.1 ± 1.5
11021 kPa | 1369.4 ± 1.5
11042 kPa | 1369.4 ± 1.5
11057 kPa | 1369.5 ± 1.5
11076 kPa | 1369.7 ± 1.5
11096 kPa | 1369.7 ± 1.5
11117 kPa | 1370 ± 1.5
11135 kPa | 1370.2 ± 1.5
11157 kPa | 1370.3 ± 1.5
11177 kPa | 1370.4 ± 1.5
11197 kPa | 1370.5 ± 1.5
11213 kPa | 1370.6 ± 1.5
11232 kPa | 1370.9 ± 1.5
11253 kPa | 1370.9 ± 1.5
11267 kPa | 1370.9 ± 1.5
11292 kPa | 1371.1 ± 1.5
11315 kPa | 1371.3 ± 1.5
11336 kPa | 1371.4 ± 1.5
11363 kPa | 1371.8 ± 1.5
11565 kPa | 1373.2 ± 1.5
11585 kPa | 1373.1 ± 1.5
11609 kPa | 1373.4 ± 1.5
11632 kPa | 1373.4 ± 1.5
11649 kPa | 1373.5 ± 1.5
11666 kPa | 1373.6 ± 1.5
11689 kPa | 1373.9 ± 1.5
11707 kPa | 1374 ± 1.5
11729 kPa | 1374.2 ± 1.5
11754 kPa | 1374.2 ± 1.5
11777 kPa | 1374.4 ± 1.5
11792 kPa | 1374.5 ± 1.5
11810 kPa | 1374.6 ± 1.5
11827 kPa | 1374.8 ± 1.5
11848 kPa | 1374.9 ± 1.5
11870 kPa | 1375 ± 1.5
11893 kPa | 1375.2 ± 1.5
11908 kPa | 1375.3 ± 1.5
11927 kPa | 1375.4 ± 1.5
11947 kPa | 1375.6 ± 1.5
11965 kPa | 1375.6 ± 1.5
11993 kPa | 1375.7 ± 1.5
12013 kPa | 1376 ± 1.5
12029 kPa | 1376.1 ± 1.5
12054 kPa | 1376.2 ± 1.5
12076 kPa | 1376.4 ± 1.5
12099 kPa | 1376.6 ± 1.5
12118 kPa | 1376.8 ± 1.5
12139 kPa | 1376.8 ± 1.5
12160 kPa | 1377 ± 1.5
12176 kPa | 1376.9 ± 1.5
12200 kPa | 1377.2 ± 1.5
12222 kPa | 1377.4 ± 1.5
12238 kPa | 1377.4 ± 1.5
12262 kPa | 1377.6 ± 1.5
12274 kPa | 1377.8 ± 1.5
12293 kPa | 1377.8 ± 1.5
12313 kPa | 1377.9 ± 1.5
12329 kPa | 1378.1 ± 1.5
12350 kPa | 1378.1 ± 1.5
12373 kPa | 1378.3 ± 1.5
12391 kPa | 1378.5 ± 1.5
12410 kPa | 1378.6 ± 1.5
12427 kPa | 1378.8 ± 1.5
12447 kPa | 1378.8 ± 1.5
12464 kPa | 1378.9 ± 1.5
12483 kPa | 1379.1 ± 1.5
12497 kPa | 1379.2 ± 1.5
12514 kPa | 1379.4 ± 1.5
12536 kPa | 1379.3 ± 1.5
12551 kPa | 1379.4 ± 1.5
12573 kPa | 1379.6 ± 1.5
12589 kPa | 1379.7 ± 1.5
12612 kPa | 1379.9 ± 1.5
12627 kPa | 1380 ± 1.5
12652 kPa | 1380.2 ± 1.5
12677 kPa | 1380.3 ± 1.5
12736 kPa | 1380.7 ± 1.5
12755 kPa | 1380.8 ± 1.5
13031 kPa | 1382.6 ± 1.5
13052 kPa | 1382.8 ± 1.5
13077 kPa | 1382.9 ± 1.5
13095 kPa | 1383 ± 1.5
13117 kPa | 1382.9 ± 1.5
13141 kPa | 1383.4 ± 1.5
13161 kPa | 1383.4 ± 1.5
13263 kPa | 1384.2 ± 1.5
13295 kPa | 1384.2 ± 1.5
13310 kPa | 1384.3 ± 1.5
13334 kPa | 1384.5 ± 1.5
13348 kPa | 1384.5 ± 1.5
13370 kPa | 1384.7 ± 1.5
13389 kPa | 1384.9 ± 1.5
13415 kPa | 1385 ± 1.5
13433 kPa | 1385 ± 1.5
13456 kPa | 1385.2 ± 1.5
13476 kPa | 1385.4 ± 1.5
13497 kPa | 1385.5 ± 1.5
13522 kPa | 1385.7 ± 1.5
13541 kPa | 1385.7 ± 1.5
13570 kPa | 1385.9 ± 1.5
13595 kPa | 1386 ± 1.5
13614 kPa | 1386.2 ± 1.5
13637 kPa | 1386.4 ± 1.5
13663 kPa | 1386.4 ± 1.5
13682 kPa | 1386.6 ± 1.5
13710 kPa | 1386.8 ± 1.5
13870 kPa | 1387.7 ± 1.5
14734 kPa | 1393 ± 1.6
14760 kPa | 1393 ± 1.6
14781 kPa | 1393.3 ± 1.6
14798 kPa | 1393.4 ± 1.6
14818 kPa | 1393.6 ± 1.6
14842 kPa | 1393.7 ± 1.6
14866 kPa | 1393.6 ± 1.6
14883 kPa | 1393.8 ± 1.6
14902 kPa | 1394 ± 1.6
14919 kPa | 1394.1 ± 1.6
14940 kPa | 1394.1 ± 1.6
14959 kPa | 1394.3 ± 1.6
14983 kPa | 1394.4 ± 1.6
15001 kPa | 1394.4 ± 1.6
15028 kPa | 1394.7 ± 1.6
15049 kPa | 1394.9 ± 1.6
15077 kPa | 1395 ± 1.6
15098 kPa | 1395 ± 1.6
15122 kPa | 1395.1 ± 1.6
15150 kPa | 1395.5 ± 1.6
15173 kPa | 1395.6 ± 1.6
15198 kPa | 1395.7 ± 1.6
15219 kPa | 1395.7 ± 1.6
15265 kPa | 1396.1 ± 1.6
15284 kPa | 1396.2 ± 1.6
15307 kPa | 1396.3 ± 1.6
15326 kPa | 1396.4 ± 1.6
15346 kPa | 1396.5 ± 1.6
15368 kPa | 1396.6 ± 1.6
15389 kPa | 1396.7 ± 1.6
15413 kPa | 1396.8 ± 1.6
15436 kPa | 1397 ± 1.6
15456 kPa | 1397.1 ± 1.6
15488 kPa | 1397.3 ± 1.6
15504 kPa | 1397.5 ± 1.6
15524 kPa | 1397.5 ± 1.6
15550 kPa | 1397.7 ± 1.6
15575 kPa | 1397.8 ± 1.6
15602 kPa | 1398 ± 1.6
15630 kPa | 1398.1 ± 1.6
15655 kPa | 1398.2 ± 1.6
15678 kPa | 1398.5 ± 1.6
16094 kPa | 1400.8 ± 1.6
16115 kPa | 1400.9 ± 1.6
16141 kPa | 1401 ± 1.6
16161 kPa | 1401.1 ± 1.6
16188 kPa | 1401.4 ± 1.6
17246 kPa | 1407 ± 1.6
17274 kPa | 1407.3 ± 1.6
17301 kPa | 1407.6 ± 1.6
17357 kPa | 1407.6 ± 1.6
17403 kPa | 1407.9 ± 1.6
17424 kPa | 1408 ± 1.6
17446 kPa | 1408.2 ± 1.6
17472 kPa | 1408.3 ± 1.6
17493 kPa | 1408.4 ± 1.6
17519 kPa | 1408.6 ± 1.6
17539 kPa | 1408.5 ± 1.6
17574 kPa | 1408.8 ± 1.6
17597 kPa | 1408.9 ± 1.6
17623 kPa | 1409 ± 1.6
17646 kPa | 1409.2 ± 1.6
17666 kPa | 1409.3 ± 1.6
17693 kPa | 1409.4 ± 1.6
17717 kPa | 1409.6 ± 1.6
17741 kPa | 1409.7 ± 1.6
17761 kPa | 1409.8 ± 1.6
17791 kPa | 1410 ± 1.6
17819 kPa | 1410.1 ± 1.6
17843 kPa | 1410.3 ± 1.6
17864 kPa | 1410.4 ± 1.6
17920 kPa | 1410.7 ± 1.6
18206 kPa | 1412.2 ± 1.6
18259 kPa | 1412.5 ± 1.6
18289 kPa | 1412.6 ± 1.6
18339 kPa | 1412.9 ± 1.6
18360 kPa | 1412.9 ± 1.6
18390 kPa | 1413.2 ± 1.6
18414 kPa | 1413.2 ± 1.6
18445 kPa | 1413.4 ± 1.6
